Experimental data published in patent publication US8367051B2, “Preparation of functional gel particles with a dual crosslink network” (Carnegie Mellon University, priority 2006, dated 2013).

Test system: HeLa cells
Test: Doxorubicin release from nanogels in cell media, live/dead cell assay
Format: cell-based
Settings: after addition of glutathione (nanogels) or free Dox (control wells); control 93%; free Dox amount 6-7 times larger
Method: Doxorubicin release from nanogels in cell media. Using standard cell culture techniques, 5×10^4 HeLa cells were added to each well of a 24-well plate and cultured in complete DMEM for 24 h to permit cell attachment to the surface. After this time period, Dox-loaded nanogel (16%, 1.5 mg) was added to four wells (for each nanogel sample), leaving 12 wells with no gel to serve at control. After another 24 hours (48 hours total), the media was removed from 10 of the wells (6 samples, 4 controls) and a live/dead cell assay was performed to measure the toxicity of the gel before addition of the reducing agent. After performing this analysis, glutathione (0.2 mg) dissolved in sterile PBS, was added to each well containing the nanogels and 6 of the control wells. Additionally, free Dox (1 mg) was added to 3 of the control wells. […]
To confirm the non-limiting exemplary concept that Dox-loaded nanogels will be degraded upon the addition of glutathione in cellular media and in turn, the released Dox molecules will kill cancer cells, HeLa cancer cells were incubated with and without 16.4% Dox-loaded nanogels. The cell viability was measured at the 48-hour time point using live/dead staining to estimate the cytotoxicity of the Dox-loaded nanogel before addition of the reducing agent. […]

## COc1cccc2c1C(=O)c1c(O)c3c(c(O)c1C2=O)C[C@@](O)(C(=O)CO)C[C@@H]3O[C@H]1C[C@H](N)[C@H](O)[C@H](C)O1.Cl [free Dox, doxorubicin hydrochloride]
  cell viability of HeLa cells after Dox release: 7%
